The subject of the first series is male SD rats. The experiment in a line: Measurement of urinary glucose excretion in rats. It is filed as in vivo, rat. The conditions noted are these: 10 mg/kg i.p. administered twice at an 8 hr interval, urine collected for 24 hr after first administration. The procedure:
The pharmacological test of urinary glucose excretion in rat is described that follow.
Measurement of Urinary Glucose Excretion in Rats
20 mg of test compounds were dissolved in 10 mL saline containing 20% dimethylsulufoxide.
Test compound (10 mg/5 mL/kg, i.p.) was administered twice an 8 hr interval to male SD rats (6 weeks old, 3 animals/group). An equal volume of vehicle was given to the control group. Urine was collected for 24 hr after first administration in metabolic cages.
The urine was centrifuged and urine volume was measured. Glucose concentration (mg/dl) was assayed using Glucose CII test Wako (Wako Pure Chemicals, Japan). The amounts of glucose excretion during 24 hr was calculated from the following equation.
Glucose secretion (mg/24 hr)=(A×B)/100
(A; the urine volume, B; the glucose concentration)
Turning to `COc1cc(O)c(C(=O)/C=C/c2ccc3occc3c2)c(CC2OC(CO)C(O)C(O)C2O)c1` [Compound 1, 3-(Benzo[b]furan-5-yl)-1-(2′-β-D-glucopyranosylmethyl-6′-hydroxy-4′-methoxy)acrylophenone], the “Urinary glucose excretion (mg/24 hr)” value is given as 4.1 mg/24 hr. For `COc1cc(O)c(C(=O)/C=C/c2ccc3occc3c2)cc1[C@@H]1O[C@H](CO)[C@@H](O)[C@H](O)[C@H]1O` [Compound 3, 3-(Benzo[b]furan-5-yl)-3′-β-D-glucopyranosyl-6′-hydroxy-4′-methoxyacrylophenone], the “Urinary glucose excretion (mg/24 hr)” value is given as 241 mg/24 hr.

In the case of `COC(=O)OC[C@H]1O[C@@H](c2cc(C(=O)/C=C/c3ccc4occc4c3)c(O)cc2OC)[C@H](O)[C@@H](O)[C@@H]1O` [Compound 4, 3-(Benzo[b]furan-5-yl)-3′-(6-O-methoxycarbonyl-β-D-glucopyranosyl)-6′-hydroxy-4′-methoxy-acrylophenone], the “Urinary glucose excretion (mg/24 hr)” value amounted to 289 mg/24 hr. Consider `COC(=O)OCC1OC(c2cc(C(=O)CCc3ccc4occc4c3)c(O)cc2OC)C(O)C(O)C1O` [Compound 5, 3-(Benzo[b]furan-5-yl)-3′-(6-O-methoxycarbonyl-β-D-glucopyranosyl)-6′-hydroxy-4′-methoxy-propiopenone], for which the “Urinary glucose excretion (mg/24 hr)” value came to 228 mg/24 hr.

Turning to `CCOc1cc(OCC)c(C2OC(CO)C(O)C(O)C2O)cc1C(=O)/C=C/c1ccc2occc2c1` (stereo not shown) [Compound 6], the “Urinary glucose excretion (mg/24 hr)” value stood at 8.9 mg/24 hr. Still for that read-out and setting: the value for `COc1cc(O)c(C(=O)CCc2ccc3occc3c2)cc1C1OC(CO)C(O)C(O)C1O` (stereo not shown) [Compound 22] was 124 mg/24 hr.

Tested on in a further series: not given
Assay: not given
Settings: not given
As usually defined, the melting point is the temperature, or range, at which the solid turns liquid. Consider `COc1cc(O)c(C(=O)/C=C/c2ccc3occc3c2)c(CC2OC(CO)C(O)C(O)C2O)c1` [Compound 1, 3-(Benzo[b]furan-5-yl)-1-(2′-β-D-glucopyranosylmethyl-6′-hydroxy-4′-methoxy)acrylophenone], for which the melting point is 135 to 136 °C. Same read-out and setting: the result for `COc1cc(OC)c(C2OC(CO)C(O)C(O)C2O)cc1C(=O)/C=C/c1ccc2occc2c1` (stereo not shown) [Compound 2] reads 226 to 228 °C. Regarding `COc1cc(O)c(C(=O)/C=C/c2ccc3occc3c2)cc1[C@@H]1O[C@H](CO)[C@@H](O)[C@H](O)[C@H]1O` [Compound 3, 3-(Benzo[b]furan-5-yl)-3′-β-D-glucopyranosyl-6′-hydroxy-4′-methoxyacrylophenone], the melting point is > 250 °C. Regarding `COC(=O)OC[C@H]1O[C@@H](c2cc(C(=O)/C=C/c3ccc4occc4c3)c(O)cc2OC)[C@H](O)[C@@H](O)[C@@H]1O` [Compound 4, 3-(Benzo[b]furan-5-yl)-3′-(6-O-methoxycarbonyl-β-D-glucopyranosyl)-6′-hydroxy-4′-methoxy-acrylophenone], the melting point is 195 to 196 °C.

For `COC(=O)OCC1OC(c2cc(C(=O)CCc3ccc4occc4c3)c(O)cc2OC)C(O)C(O)C1O` [Compound 5, 3-(Benzo[b]furan-5-yl)-3′-(6-O-methoxycarbonyl-β-D-glucopyranosyl)-6′-hydroxy-4′-methoxy-propiopenone], the melting point was in the range of 120 to 121 °C. Molecule `CCOc1cc(OCC)c(C2OC(CO)C(O)C(O)C2O)cc1C(=O)/C=C/c1ccc2occc2c1` (stereo not shown) [Compound 6] yielded a melting point of 120 to 121 °C. The same measure, in the same setting: the result for `CCOc1cc(O)c(C(=O)/C=C/c2ccc3occc3c2)cc1C1OC(CO)C(O)C(O)C1O` (stereo not shown) [Compound 7] reads 189 to 190 °C. Molecule `Cc1cc(O)c(C(=O)/C=C/c2ccc3occc3c2)cc1C1OC(CO)C(O)C(O)C1O` (stereo not shown) [Compound 8] displayed a melting point of 228 to 229 °C. As for `COc1cc(C)c(C(=O)/C=C/c2ccc3occc3c2)cc1C1OC(CO)C(O)C(O)C1O` (stereo not shown) [Compound 9], the melting point was in the range of 137 to 138 °C. `COc1cc(O)c(C(=O)/C=C/c2ccc(C)cc2)cc1C1OC(CO)C(O)C(O)C1O` (stereo not shown) [Compound 10] displayed a melting point of 181 to 183 °C. In the case of `COc1cc(O)c(C(=O)/C=C/c2ccsc2)cc1C1OC(CO)C(O)C(O)C1O` (stereo not shown) [Compound 11], the melting point lay in the range of 239 to 242 °C. Consider `COc1cc(O)c(C(=O)/C=C/c2ccncc2)cc1C1OC(CO)C(O)C(O)C1O` (stereo not shown) [Compound 12], for which the melting point is 183 to 185 °C. The same measure, in the same setting: the value for `COc1cc(O)c(C(=O)/C=C/c2ccc3ccccc3c2)cc1C1OC(CO)C(O)C(O)C1O` (stereo not shown) [Compound 13] was 236 to 239 °C; that for `COc1cc(O)c(C(=O)/C=C/c2ccnc3ccccc23)cc1C1OC(CO)C(O)C(O)C1O` (stereo not shown) [Compound 14] was 226 to 228 °C; that for `COc1cc(O)c(C(=O)/C=C/c2ccc3c(c2)CCC3)cc1C1OC(CO)C(O)C(O)C1O` (stereo not shown) [Compound 15] was 245 to 248 °C.

The molecule `COc1cc(O)c(C(=O)/C=C/c2ccc3occc3c2)c(OC)c1C1OC(CO)C(O)C(O)C1O` (stereo not shown) [Compound 16] yielded a melting point of 198 to 199 °C.

For the molecule `COc1cc(O)c(C(=O)/C=C/c2ccc3[nH]ccc3c2)cc1C1OC(CO)C(O)C(O)C1O` (stereo not shown) [Compound 17], the melting point fell in the range of 194 to 196 °C.

Molecule `COc1cc(O)c(C(=O)/C=C/c2ccc3sccc3c2)cc1C1OC(CO)C(O)C(O)C1O` (stereo not shown) [Compound 18] gave a melting point of 217 to 220 °C. Consider `COc1cc(O)c(C(=O)/C=C/c2ccc3c(c2)CCO3)cc1C1OC(CO)C(O)C(O)C1O` (stereo not shown) [Compound 19], for which the melting point fell in the range of 276 to 279 °C. `COc1cc(O)c(C(=O)/C=C/c2cc3ccccc3o2)cc1C1OC(CO)C(O)C(O)C1O` (stereo not shown) [Compound 20] displayed a melting point of 256 to 257 °C. For `COc1cc(O)c(C(=O)CCc2ccc3occc3c2)c(C[C@@H]2O[C@H](CO)[C@@H](O)[C@H](O)[C@H]2O)c1` [Compound 21, 3-(Benzo[b]furan-5-yl)-2′-β-D-glucopyranosylmethyl-6′-hydroxy-4′-methoxypropiophenone], the melting point fell in the range of 103 to 105 °C.

In turn, `COc1cc(O)c(C(=O)CCc2ccc3occc3c2)cc1C1OC(CO)C(O)C(O)C1O` (stereo not shown) [Compound 22] returned a melting point of 226 to 228 °C.

`COc1cc(OC)c(C2OC(CO)C(O)C(O)C2O)cc1C(=O)CCc1ccc2occc2c1` (stereo not shown) [Compound 23]: the melting point was 112 to 113 °C. Molecule `CCOc1cc(OCC)c(C2OC(CO)C(O)C(O)C2O)cc1C(=O)CCc1ccc2occc2c1` (stereo not shown) [Compound 24] showed a melting point of 89 to 90 °C. The molecule `CCOc1cc(O)c(C(=O)CCc2ccc3occc3c2)cc1C1OC(CO)C(O)C(O)C1O` (stereo not shown) [Compound 25] displayed a melting point of 175 to 176 °C. The molecule `Cc1cc(O)c(C(=O)CCc2ccc3occc3c2)cc1C1OC(CO)C(O)C(O)C1O` (stereo not shown) [Compound 26] showed a melting point of 191 to 192 °C. The same measure, in the same setting: the value for `COc1cc(C)c(C(=O)CCc2ccc3occc3c2)cc1C1OC(CO)C(O)C(O)C1O` (stereo not shown) [Compound 27] was 118 to 119 °C. Same read-out and setting: the value for `COc1cc(O)c(C(=O)CCc2ccc3c(c2)CCC3)cc1C1OC(CO)C(O)C(O)C1O` (stereo not shown) [Compound 28] was 194 to 196 °C; that for `COc1cc(O)c(C(=O)CCc2ccc3occc3c2)c(OC)c1C1OC(CO)C(O)C(O)C1O` (stereo not shown) [Compound 29] was 131 to 132 °C; that for `COc1cc(O)c(C(=O)CCc2ccc3[nH]ccc3c2)cc1C1OC(CO)C(O)C(O)C1O` (stereo not shown) [Compound 30] was 66 to 71 °C. In the case of `COc1cc(O)c(C(=O)CCc2cc3ccccc3o2)cc1C1OC(CO)C(O)C(O)C1O` (stereo not shown) [Compound 31], the melting point lay within 216 to 217 °C. On the same count and under the same terms, the value for `COc1cc(O)c(C(=O)/C=C/c2ccc3occc3c2)cc1C1OC(COC(=O)CCC(=O)O)C(O)C(O)C1O` (stereo not shown) [Compound 42] was 71 to 73 °C. `COc1cc(O)c(C(=O)/C=C/c2ccc3occc3c2)cc1C1OC(C(=O)[O-])C(O)C(O)C1O.[Na+]` [Compound 43, 3-(Benzo[b]furan-5-yl)-3′-(6-carboxysodium salt-β-D-glucopyranosyl)4′-methoxy-6′-hydroxy-acrylophenone] displayed a melting point of 115 to 117 °C. On to `COc1cc(O)c(C(=O)/C=C/c2ccc3occc3c2)cc1C1OC(COS(=O)(=O)O)C(O)C(O)C1O` [Compound 44, 3-(Benzo[b]furan-5-yl)-3′-(6-sulfonic acid-β-D-glucopyranosyl)-4′-methoxy-6′-hydroxyacrylophenone], for which the melting point fell in the range of 177 to 179 °C. Still for that read-out and setting: the value for `COc1cc(O)c(C(=O)CCc2ccc3occc3c2)cc1C1OC(COC(=O)CCC(=O)O)C(O)C(O)C1O` (stereo not shown) [Compound 47] was 113 to 114 °C. In turn, `COc1cc(O)c(C(=O)CCc2ccc3occc3c2)cc1C1OC(COC(=O)CCC(=O)[O-])C(O)C(O)C1O.[Na+]` (stereo not shown) [Compound 48] had a melting point of 262 °C. Turning to `Cc1cc(O)c(C(=O)/C=C/c2ccc3occc3c2)c(CC2OC(CO)C(O)C(O)C2O)c1` [Compound 51, 3-(Benzo[b]furan-5-yl)-1-[6-hydroxy-4-methyl-2-{(β-D-glucopyranos-1-yl)methyl}]acrylophenone], the melting point lay in the range of 103 to 105 °C. Regarding `Cc1cc(O)c(C(=O)CCc2ccc3occc3c2)c(CC2OC(CO)C(O)C(O)C2O)c1` [Compound 52, 3-(Benzo[b]furan-5-yl)-1-[6-hydroxy-4-methyl-2-{(β-D-glucopyranos-1-yl)methyl}]propiophenone], the melting point was in the range of 85 to 87 °C. For the molecule `COC(=O)OCC1OC(Cc2cc(C)cc(O)c2C(=O)CCc2ccc3occc3c2)C(O)C(O)C1O` [Compound 53, 3-Benzo [b]furan-5-yl-1-(6-hydroxy-4-methyl-2-{[6-methoxycarbonyl-β-D-glucopyranos-1-yl]methyl})propiophenone], the melting point was 58 to 60 °C. `O=C(CCc1ccc(O)cc1)c1c(O)cc(O)cc1CC1OC(CO)C(O)C(O)C1O` [Compound 54, 1-[2,4-Dihydroxy-6-{(β-D-glicopyranosyl)methyl}phenyl]-3-(4-hydroxyphenyl)propan-1-one]: the melting point lay in the range of 227 to 228 °C.

The molecule `COc1cc(C)cc(CC2OC(CO)C(O)C(O)C2O)c1C(=O)/C=C/c1ccc2occc2c1` (stereo not shown) [Compound 55] yielded a melting point of 80 to 83 °C. Turning to `COc1cc(C)cc(CC2OC(CO)C(O)C(O)C2O)c1C(=O)/C=C/c1ccc2occc2c1` (stereo not shown) [Compound 57], the melting point fell in the range of 118 to 120 °C. In turn, `COC(=O)OCC1OC(Cc2cc(O)cc(O)c2C(=O)CCc2ccc(O)cc2)C(O)C(O)C1O` (stereo not shown) [Compound 58] showed a melting point of 199 to 201 °C.

Source of the values: patent US6627611B2, “C-glycosides and preparation of thereof as antidiabetic agents” (Kotobuki Pharmaceutical Co Ltd, priority 2000, dated 2003).
